The target in the test is T1, human vitamin D receptor (VDR) (Homo sapiens, UniProt P11473).
T1 construct: expressed in transfected cells; host or cells: HEK293 cells (ATCC), transient transfection
T1 sequence (P11473 127-423 limits assumed): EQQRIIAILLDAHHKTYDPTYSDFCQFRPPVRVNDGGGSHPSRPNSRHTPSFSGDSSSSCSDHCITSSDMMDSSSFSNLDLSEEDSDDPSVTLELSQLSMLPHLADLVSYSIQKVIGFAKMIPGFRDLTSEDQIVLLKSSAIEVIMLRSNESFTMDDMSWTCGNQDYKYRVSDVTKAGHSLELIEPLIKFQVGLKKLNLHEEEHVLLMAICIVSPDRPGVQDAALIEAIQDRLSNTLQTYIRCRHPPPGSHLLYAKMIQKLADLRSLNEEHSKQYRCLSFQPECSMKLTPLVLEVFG
Nature of the test: Human vitamin D receptor (VDR) agonist activity, GAL4-VDR LBD luciferase transactivation assay in transiently transfected HEK293 cells. Format: cell-based. The note with it: hybrid VDR-GAL4 receptor, pFR-Luc luciferase reporter, 16 h incubation, read-out: Effective concentrations of half maximal activation (EC50). The text has this: By way of example, the human vitamin D receptor (VDR) agonist activity of the claimed compounds can be tested using a cell based transactivation assay in an eukaryotic cell line. After a co-transfection, using a reporter plasmid construct and a hybrid receptor construct containing the ligand-binding domain of the human VDR linked to the DNA-binding domain of the yeast transcription factor GAL4, the cultured cells were stimulated by the VDR agonists. The hybrid VDR-GAL4 receptor binds the VDR agonists and transactivates luciferase reporter expression through the GAL4-response elements in the promoter of the luciferase gene (reporter construct). The VDR agonist binding and transactivation is determined by measuring the luciferase luminescence activity. The effective concentration of half maximal activation (EC50) was determined for the VDR agonists by means of dose-response experiments. The details of the protocol method of this test according to the invention are described in the example section. […]

We go through 2 compounds from US10849838B2, “Biaromatic vitamin D analogs” (DSM IP ASSETS B.V., priority 2015, dated 2020).

On to `CC/C(=C\C=C\C(O)(CC)CC)c1cccc(CCc2ccc(C(C)O)c(CO)c2)c1` (racemic) [I-a, (4E,6E)-3-ethyl-7-(3-(4-(1-hydroxyethyl)-3-(hydroxymethyl)phenethyl)phenyl)nona-4,6-dien-3-ol], for which the EC50 was determined as 7 nM.

Take `CC/C(=C\C=C\C(O)(CC)CC)c1cccc(CCc2ccc(CO)c(C(C)O)c2)c1` (racemic) [Comp1]: the EC50 was found to be 113 nM.
